Experimental data: US20240384268A1, “Oligonucleotides” (Hudson Institute of Medical Research, priority 2021, published 2024)
In the oligonucleotide strings, read from the 5' end, every base follows the letter of its sugar. An asterisk marks phosphorothioate; unmarked linkages are phosphodiester. Other units and linkages are bracketed, terminal groups are in braces. A string of capitals states the bases alone. d = 2'-deoxy (DNA); m = 2'-O-methyl

These substances were tested against cGAS (Homo sapiens, UniProt Q8N884) (assay: ISD70-driven IP-10 (and IFN-β) production in THP-1 cells, ELISA). Details: ASO 100 nM; relative to ISD70 only, given as fraction.
Chain of cGAS (Q8N884 whole entry): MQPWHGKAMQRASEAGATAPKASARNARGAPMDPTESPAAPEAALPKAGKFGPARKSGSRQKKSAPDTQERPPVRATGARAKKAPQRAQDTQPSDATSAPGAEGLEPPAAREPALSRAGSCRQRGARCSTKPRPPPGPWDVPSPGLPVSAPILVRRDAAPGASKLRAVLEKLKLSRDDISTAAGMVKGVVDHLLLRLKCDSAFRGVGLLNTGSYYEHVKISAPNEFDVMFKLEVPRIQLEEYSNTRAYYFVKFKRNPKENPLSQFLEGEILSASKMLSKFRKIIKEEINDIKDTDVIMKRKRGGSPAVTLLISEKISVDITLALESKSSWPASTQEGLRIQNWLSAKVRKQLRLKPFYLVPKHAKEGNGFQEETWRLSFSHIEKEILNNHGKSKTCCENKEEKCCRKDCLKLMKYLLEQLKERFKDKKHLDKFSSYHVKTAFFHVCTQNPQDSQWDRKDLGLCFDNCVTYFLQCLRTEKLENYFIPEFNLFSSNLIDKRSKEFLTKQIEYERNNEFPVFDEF
Type: cell-based
Design: endogenous in cells; host or cells: THP-1 (undifferentiated)
In the case of “ACACTTCGTGGGGTCC (antisense; LNA-modified, pattern not given here) [HPRT LNA-665 V1]”, the “cGAS 100 nM (averaged IP-10 level relative to ISD70 condition)” value is reported as 0.516. With “CAACACTTCGTGGGGT (antisense; LNA-modified, pattern not given here) [HPRT LNA-667 V1]” the “cGAS 100 nM (averaged IP-10 level relative to ISD70 condition)” value was 0.675. In the case of “CCAAGATCAGCAGTCT (antisense; LNA-modified, pattern not given here) [CTNN2B-2341 LNA KL]”, the “cGAS 100 nM (averaged IP-10 level relative to ISD70 condition)” value is reported as 0.356. For “CCATCCATGAGGTCCT (antisense; LNA-modified, pattern not given here) [CTNN2B-2545 LNA V1]”, the “cGAS 100 nM (averaged IP-10 level relative to ISD70 condition)” value was 0.533. With “GATAGCACCTTCAGCA (antisense; LNA-modified, pattern not given here) [CTNN2B-1294 LNA KL]” the “cGAS 100 nM (averaged IP-10 level relative to ISD70 condition)” value was 0.436. With “GCAGGCTCAGTGATGT (antisense; LNA-modified, pattern not given here) [CTNN2B-1642 LNA V1]” the “cGAS 100 nM (averaged IP-10 level relative to ISD70 condition)” value was 0.458. With “GCATCCACCACGTCGT (antisense; LNA-modified, pattern not given here) [EGFR-3267 LNA V1]” the “cGAS 100 nM (averaged IP-10 level relative to ISD70 condition)” value was 0.602. With “GCCATCCACTTGATAG (antisense; LNA-modified, pattern not given here) [EGFR-2874 LNA V1]” the “cGAS 100 nM (averaged IP-10 level relative to ISD70 condition)” value was 0.688. “GCCATGCTGGCTCGGA (antisense; LNA-modified, pattern not given here) [CAMSAP1-2584 LNA V1]” was tested, and the “cGAS 100 nM (averaged IP-10 level relative to ISD70 condition)” value was 0.599. With “GCCATGTTTCTTCTTG (antisense; LNA-modified, pattern not given here) [MB21D1-1248 LNA KL]” the “cGAS 100 nM (averaged IP-10 level relative to ISD70 condition)” value was 0.639. With “GGCTGGAATCCGAGTT (antisense; LNA-modified, pattern not given here) [EGFR-4705 LNA KL]” the “cGAS 100 nM (averaged IP-10 level relative to ISD70 condition)” value was 0.592. With “GGTTACGGCTCAGTAT (antisense; LNA-modified, pattern not given here) [CAMSAP1-4295 LNA KL]” the “cGAS 100 nM (averaged IP-10 level relative to ISD70 condition)” value was 0.661. “GTATCGAAAGAGTCTG (antisense; LNA-modified, pattern not given here) [EGFR-3908 LNA KL]” was tested, and the “cGAS 100 nM (averaged IP-10 level relative to ISD70 condition)” value was 0.609. With “GTCCCCTGTTGACTGG (antisense; LNA-modified, pattern not given here) [HPRT LNA-489 KL]” the “cGAS 100 nM (averaged IP-10 level relative to ISD70 condition)” value was 0.606. “GTCTTGGCTTCGTGGA (antisense; LNA-modified, pattern not given here) [MB21D1-522 LNA V1]” was tested, and the “cGAS 100 nM (averaged IP-10 level relative to ISD70 condition)” value was 0.620. “GTGTCTGGAAGCTTCC (antisense; LNA-modified, pattern not given here) [CTNN2B-809 LNA V1]” was tested, and the “cGAS 100 nM (averaged IP-10 level relative to ISD70 condition)” value was 0.482. With “GTTCAGTCCTGTCCAT (antisense; LNA-modified, pattern not given here) [HPRT LNA-292 V1]” the “cGAS 100 nM (averaged IP-10 level relative to ISD70 condition)” value was 0.563. With “TCCAACACTTCGTGGG (antisense; LNA-modified, pattern not given here) [HPRT LNA-669 V1]” the “cGAS 100 nM (averaged IP-10 level relative to ISD70 condition)” value was 0.539. In the case of “TCGTAGTTGCTTCCTA (antisense; LNA-modified, pattern not given here) [MB21D1-1181 LNA KL]”, the “cGAS 100 nM (averaged IP-10 level relative to ISD70 condition)” value is reported as 0.610. In the case of “TGATGGCCTCCCATCT (antisense; LNA-modified, pattern not given here) [HPRT LNA-332 V1]”, the “cGAS 100 nM (averaged IP-10 level relative to ISD70 condition)” value is reported as 0.650. “TGCACACTTCGTACCC (antisense; LNA-modified, pattern not given here) [CAMSAP1-4916 LNA V1]” was tested, and the “cGAS 100 nM (averaged IP-10 level relative to ISD70 condition)” value was 0.572. For “TGGCCTCCCATCTCCT (antisense; LNA-modified, pattern not given here) [HPRT LNA-329 V1]”, the “cGAS 100 nM (averaged IP-10 level relative to ISD70 condition)” value was 0.494. With “TGTGATGGCCTCCCAT (antisense; LNA-modified, pattern not given here) [HPRT LNA-334 V1]” the “cGAS 100 nM (averaged IP-10 level relative to ISD70 condition)” value was 0.557. In the case of “TTCGTGGGGTCCTTTT (antisense; LNA-modified, pattern not given here) [HPRT LNA-661 V1]”, the “cGAS 100 nM (averaged IP-10 level relative to ISD70 condition)” value is reported as 0.520. With “TTTTGGCTGGGATCAA (antisense; LNA-modified, pattern not given here) [CAMSAP1-4697 LNA KL]” the “cGAS 100 nM (averaged IP-10 level relative to ISD70 condition)” value was 0.590.

Same assay, conditions: THP-1; 125 nM oligonucleotide 6 h, ISD70 overnight
For “T*T*A* G*G*G* T*T*A* G*G*G* T*T*A* G*G*G* T*T*A* G*G*G [A151, reference compound]”, the “IFN-β production after ISD70 transfection: reduction” value was roughly 50%. With “mG*mC*mG*mG*mU*A*T*C*C*A*T*G*T*C*C*mC*mA*mG*mG*mC (mG*mC*mG*mG*mU*dA*dT*dC*dC*dA*dT*dG*dT*dC*dC*mC*mA*mG*mG*mC; antisense) [C2-Mut1]” the “IFN-β production after ISD70 transfection: reduction” value was “blocked”.

Same assay, conditions: THP-1; 300 nM LNA or 200 nM MOE ASO ~30 min; ISD70 overnight (FIG. 21, 23)
In the case of “GTGTCTGGAAGCTTCC (antisense; LNA-modified, pattern not given here) [CTNN2B-809 LNA V1]”, the “inhibition of cGAS in THP-1, LNA and MOE ASO validation (in words)” value is reported as “potently inhibited signalling”.

Same assay, conditions: THP-1; 2′OMe or PS oligos, 100-250 nM, pre-treatment as in figure legends; ISD70 2.5 μg/ml
In the case of “mC*mG*mU*T*T*C*C*C*C*C*C*C*C*C*C*C*C*C*C*C (CGUTTCCCCCCCCCCCCCCC; antisense; sugars from the 5' end m3 d17, all phosphorothioate, methylation of C not given here) [[C2]Mut1-v3-dC]”, the “inhibition of ISD70-driven IP-10 production (in words)” value is reported as “lacked significant inhibitory activity”. In the case of “mG*mC*mG*mG*mU*A*T*C*C*A*T*G*T*C*C*mC*mA*mG*mG*mC (mG*mC*mG*mG*mU*dA*dT*dC*dC*dA*dT*dG*dT*dC*dC*mC*mA*mG*mG*mC; antisense) [C2-Mut1]”, the “inhibition of ISD70-driven IP-10 production (in words)” value is reported as “most inhibitory sequence of ISD70 sensing”. For “mG*mG*mU*A*T*C*C*C*C*C*C*C*C*C*C*C*C*C*C*C (GGUATCCCCCCCCCCCCCCC; antisense; sugars from the 5' end m3 d17, all phosphorothioate, methylation of C not given here) [[C2]Mut1-dC]”, the “inhibition of ISD70-driven IP-10 production (in words)” value was “significantly more inhibitory than its precursor dC20”.

Same assay, conditions: THP-1; 6 h pre-treatment, ISD70 2.5 μg/ml overnight (FIG. 3A); listed as C2-Mutl; read-out: IC50 (IP-10 production after ISD70 transfection)
“mG*mC*mG*mG*mU*A*T*C*C*A*T*G*T*C*C*mC*mA*mG*mG*mC (mG*mC*mG*mG*mU*dA*dT*dC*dC*dA*dT*dG*dT*dC*dC*mC*mA*mG*mG*mC; antisense) [C2-Mut1]” showed an IC50 of roughly 56 nM.

Same assay, conditions: THP-1; 6 h pre-treatment, ISD70 2.5 μg/ml overnight (FIG. 3A); read-out: IC50 (IP-10 production after ISD70 transfection)
“T*T*A* G*G*G* T*T*A* G*G*G* T*T*A* G*G*G* T*T*A* G*G*G [A151, reference compound]” was tested, and the IC50 was 165 nM. For “mG*mC*mG*mG*mU*A*T*C*C*A*T*G*T*C*C*mC*mA*mG*mG*mC (mG*mC*mG*mG*mU*dA*dT*dC*dC*dA*dT*dG*dT*dC*dC*mC*mA*mG*mG*mC; antisense) [C2-Mut1]”, the IC50 was 56 nM.
